Assay results published in EP1853270B1, “PHARMACEUTICAL COMPOSITIONS COMPRISING NEP-INHIBITORS, INHIBITORS OF THE ENDOGENOUS ENDOTHELIN PRODUCING SYSTEM AND DIURETICS” (Solvay Pharmaceuticals GmbH, priority 2005, dated 2006).

Test system: spontaneously hypertensive rat
Experiment: Telemetric monitoring of blood pressure and heart rate in spontaneously hypertensive rats, compounds given via drinking water
Assay type: in vivo
Conditions: male SHR; for DBP: group mean change of 24 h mean diastolic blood pressure; for DBP / HR / SBP: day 23 (3 weeks of treatment) minus baseline (day 3), via drinking water, intended 10 mg/kg/day hydrochlorothiazide and/or 100 mg/kg/day daglutril, n=5 per group; for HR: group mean change of 24 h mean heart rate; for SBP: group mean change of 24 h mean systolic blood pressure; for effect on blood pressure: result in words, 3 weeks of treatment via drinking water, difference between groups significant (ANOVA, at least P<0.01)
Text: Male spontaneously hypertensive rats (= SHR, insulin resistant strain from Charles River; aged 6 months) were equipped with telemetry transmitters for continuous monitoring of blood pressure and heart rate (TA11PA-C40. DSI, USA). Telemetry transmitters for continuous monitoring of blood pressure, heart rate and locomotor activity (TA11PA-C40, Data Sciences, USA) were implanted intraabdominally under inhalative halothane anesthesia. A midline abdominal incision was made, and the abdominal aorta was visualized by removal of retroperitoneal fat and connective tissue. A ligature was placed caudal of the renal arteries, the aorta was punctured with a 22G needle, and the catheter was advanced into the aorta. The entry point was sealed with tissue adhesive (Vetbond, 3M, USA), the ligature was removed, and the abdominal incision was closed. Measurements of aortic pressure were taken every 5 minutes (= min) for 4 seconds (= s) each at a sampling rate of 500 Hz, and were corrected for the corresponding ambient pressure (ambient pressure monitor, C11 PR, Data Sciences, USA).
After 3 days of monitoring under baseline (untreated) conditions, animals received daglutril via the drinking water. The intended daily dose was 100 mg/kg/day of daglutril.
In a second experiment, rats were divided into two treatment groups receiving hydrochlorothiazide or hydrochlorothiazide + daglutril. Compounds were administered via the drinking water, and daily drug intake was measured by weighing the water bottles thrice weekly. Intended daily doses were 10 mg/kg/day of hydrochlorothiazide plus, in the combination group, 100 mg/kg/day of daglutril.
Concentrations of hydrochlorothiazide and daglutril in the drinking water were adjusted once per week, in order to ensure the intended daily intake of 10 and 100 mg/kg, respectively.
The blood pressure, heart rate and activity values, sampled in 5 min intervals by the Dataquest™ system, were used for calculation of individual 24 hours (= h) -means. These 24 h means were exported to Excel, and group mean values of systolic blood pressure (= SBP), diastolic blood pressure (= DBP), heart rate (= HR), and locomotor activity (= ACT) were calculated for the daglutril, hydrochlorothiazide and the hydrochlorothiazide + daglutril groups. For the statistical analysis, a baseline value (pre) was calculated from the last day prior to compound application (day 3), and effects of daglutril, hydrochlorothiazide and hydrochlorothiazide + daglutril were calculated in relation to this baseline value (day 23, i.e. after 3 weeks of treatment, minus baseline value). The statistical comparison was done by using univariate ANOVA at an error level of P<0.05.

SMILES | DBP [mmHg] | HR [min⁻¹] | SBP [mmHg] | effect on blood pressure
NS(=O)(=O)c1cc2c(cc1Cl)NCNS2(=O)=O [HCTZ, hydrochlorothiazide] | -7.7 | -4.5 | -11.3 | moderate decrease in blood pressure
CCOC(=O)[C@H](CCc1ccccc1)CC1(C(=O)N[C@H]2CCc3ccccc3N(CC(=O)O)C2=O)CCCC1 [daglutril] | 2.0 | -6.0 | -0.3 | no effect on blood pressure
